Assay [1] deals with Ephrin type-A receptor 2 (Homo sapiens, UniProt P29317).
Assay [2] addresses T1, Ephrin type-B receptor 2 (Homo sapiens, UniProt P29323).
T1 sequence (P29323 whole entry): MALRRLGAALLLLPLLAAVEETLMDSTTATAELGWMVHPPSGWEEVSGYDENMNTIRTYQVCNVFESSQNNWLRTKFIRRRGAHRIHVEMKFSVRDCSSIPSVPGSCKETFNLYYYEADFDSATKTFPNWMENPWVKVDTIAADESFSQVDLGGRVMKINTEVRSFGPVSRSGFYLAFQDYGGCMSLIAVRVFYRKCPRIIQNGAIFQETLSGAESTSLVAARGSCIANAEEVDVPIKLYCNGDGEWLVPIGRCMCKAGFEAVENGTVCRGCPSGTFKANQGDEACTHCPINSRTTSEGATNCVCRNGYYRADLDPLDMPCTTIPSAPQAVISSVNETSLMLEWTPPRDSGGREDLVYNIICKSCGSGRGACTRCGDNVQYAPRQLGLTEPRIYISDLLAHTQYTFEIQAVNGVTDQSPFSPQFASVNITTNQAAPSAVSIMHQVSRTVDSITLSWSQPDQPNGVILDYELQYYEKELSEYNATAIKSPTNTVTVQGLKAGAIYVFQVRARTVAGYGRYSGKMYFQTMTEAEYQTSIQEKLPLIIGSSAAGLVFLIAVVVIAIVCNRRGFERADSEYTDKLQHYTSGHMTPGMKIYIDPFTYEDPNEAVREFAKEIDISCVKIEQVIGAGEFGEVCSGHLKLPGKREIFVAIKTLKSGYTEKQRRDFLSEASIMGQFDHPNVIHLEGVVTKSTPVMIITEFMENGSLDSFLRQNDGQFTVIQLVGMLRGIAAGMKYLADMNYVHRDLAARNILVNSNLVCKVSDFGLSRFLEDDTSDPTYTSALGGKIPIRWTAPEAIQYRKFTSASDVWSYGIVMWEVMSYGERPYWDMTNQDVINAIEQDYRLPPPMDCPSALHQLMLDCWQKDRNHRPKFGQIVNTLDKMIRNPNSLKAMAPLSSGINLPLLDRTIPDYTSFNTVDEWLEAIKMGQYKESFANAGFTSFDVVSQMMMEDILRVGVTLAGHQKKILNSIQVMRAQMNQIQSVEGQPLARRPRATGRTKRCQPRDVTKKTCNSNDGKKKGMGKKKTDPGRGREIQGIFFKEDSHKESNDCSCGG

The target in assay [3] is Glycogen synthase kinase-3 beta (Homo sapiens, UniProt P49841).
Sequence of Glycogen synthase kinase-3 beta (P49841 whole entry): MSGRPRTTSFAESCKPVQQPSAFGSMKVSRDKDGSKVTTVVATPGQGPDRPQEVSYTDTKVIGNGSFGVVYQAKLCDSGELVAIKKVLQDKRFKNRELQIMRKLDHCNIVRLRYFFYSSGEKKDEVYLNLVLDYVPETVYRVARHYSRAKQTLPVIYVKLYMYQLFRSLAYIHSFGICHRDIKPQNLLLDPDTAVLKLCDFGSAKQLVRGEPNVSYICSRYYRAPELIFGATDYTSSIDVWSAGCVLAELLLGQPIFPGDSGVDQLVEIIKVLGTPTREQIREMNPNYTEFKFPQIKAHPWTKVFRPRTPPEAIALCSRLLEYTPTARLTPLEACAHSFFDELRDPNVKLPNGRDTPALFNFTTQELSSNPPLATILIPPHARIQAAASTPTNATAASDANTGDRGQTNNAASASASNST
The target in assay [4] is Inosine-5'-monophosphate dehydrogenase 2 (Homo sapiens, UniProt P12268).
The target in assay [5] is T2, Serine/threonine-protein kinase NLK (Homo sapiens, UniProt Q9UBE8).
T2 sequence (Q9UBE8 whole entry): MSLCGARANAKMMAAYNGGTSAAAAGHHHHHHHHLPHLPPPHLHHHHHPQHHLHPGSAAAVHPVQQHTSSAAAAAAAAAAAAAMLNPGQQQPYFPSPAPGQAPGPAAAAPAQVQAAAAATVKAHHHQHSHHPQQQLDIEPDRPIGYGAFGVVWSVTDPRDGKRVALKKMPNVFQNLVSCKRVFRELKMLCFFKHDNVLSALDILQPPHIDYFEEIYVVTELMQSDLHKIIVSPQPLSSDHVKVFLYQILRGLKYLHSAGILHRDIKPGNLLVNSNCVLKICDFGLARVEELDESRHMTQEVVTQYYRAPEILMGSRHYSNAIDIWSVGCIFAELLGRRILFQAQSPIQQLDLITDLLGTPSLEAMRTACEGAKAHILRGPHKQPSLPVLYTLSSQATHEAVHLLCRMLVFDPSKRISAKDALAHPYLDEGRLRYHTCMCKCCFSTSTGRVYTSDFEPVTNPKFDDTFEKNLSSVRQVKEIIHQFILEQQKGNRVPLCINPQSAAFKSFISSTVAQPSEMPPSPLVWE

In assay [6] the target is T3, ATP-dependent 6-phosphofructokinase, platelet type (Homo sapiens, UniProt Q01813).
T3 sequence (Q01813 whole entry): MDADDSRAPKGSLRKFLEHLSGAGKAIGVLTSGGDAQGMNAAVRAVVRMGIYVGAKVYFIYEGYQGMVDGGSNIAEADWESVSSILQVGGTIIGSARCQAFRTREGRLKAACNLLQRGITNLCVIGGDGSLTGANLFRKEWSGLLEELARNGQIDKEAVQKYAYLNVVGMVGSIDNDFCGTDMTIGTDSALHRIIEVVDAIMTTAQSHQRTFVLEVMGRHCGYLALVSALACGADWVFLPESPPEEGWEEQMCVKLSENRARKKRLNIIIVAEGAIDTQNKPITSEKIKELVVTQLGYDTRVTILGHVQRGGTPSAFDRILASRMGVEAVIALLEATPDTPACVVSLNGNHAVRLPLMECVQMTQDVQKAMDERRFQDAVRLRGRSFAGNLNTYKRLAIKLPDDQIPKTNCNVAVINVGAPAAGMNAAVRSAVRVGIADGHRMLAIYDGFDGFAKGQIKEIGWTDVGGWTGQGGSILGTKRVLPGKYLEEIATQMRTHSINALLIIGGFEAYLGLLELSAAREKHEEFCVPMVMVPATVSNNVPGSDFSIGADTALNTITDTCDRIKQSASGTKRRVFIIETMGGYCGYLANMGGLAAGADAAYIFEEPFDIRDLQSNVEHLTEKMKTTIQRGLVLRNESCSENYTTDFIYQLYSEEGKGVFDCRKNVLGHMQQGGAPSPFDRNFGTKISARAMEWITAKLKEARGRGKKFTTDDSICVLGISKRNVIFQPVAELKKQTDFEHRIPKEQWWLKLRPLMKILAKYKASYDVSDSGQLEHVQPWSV

In assay [7] the target is Protein-tyrosine kinase 6 (Homo sapiens, UniProt Q13882).
Sequence of Protein-tyrosine kinase 6 (Q13882 whole entry): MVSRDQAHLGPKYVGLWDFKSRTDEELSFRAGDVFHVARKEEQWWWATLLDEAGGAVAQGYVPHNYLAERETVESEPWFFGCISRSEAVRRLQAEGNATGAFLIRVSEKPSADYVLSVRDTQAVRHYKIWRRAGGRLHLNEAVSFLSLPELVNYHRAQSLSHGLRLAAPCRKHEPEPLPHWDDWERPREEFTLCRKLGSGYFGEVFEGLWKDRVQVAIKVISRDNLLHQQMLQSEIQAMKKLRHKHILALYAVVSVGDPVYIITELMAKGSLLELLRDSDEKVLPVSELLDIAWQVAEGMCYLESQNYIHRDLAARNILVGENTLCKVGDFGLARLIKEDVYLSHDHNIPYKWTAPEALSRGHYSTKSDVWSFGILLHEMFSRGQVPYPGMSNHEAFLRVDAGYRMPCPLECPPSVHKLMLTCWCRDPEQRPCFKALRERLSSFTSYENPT
Assay [8] has as its target Serine/threonine-protein kinase 16 (Homo sapiens, UniProt O75716).
Assay [9] concerns the target DNA topoisomerase 2-alpha (Homo sapiens, UniProt P11388).

pKd: −log10 of the molar value. The source made the active and inactive calls. Rule as the data show it, for most assays here: actives have a measured Kd and inactives only a lower limit.
Also: in the data inactive means no Kd found up to 30 µM.

Sequence of Serine/threonine-protein kinase 16 (O75716 whole entry): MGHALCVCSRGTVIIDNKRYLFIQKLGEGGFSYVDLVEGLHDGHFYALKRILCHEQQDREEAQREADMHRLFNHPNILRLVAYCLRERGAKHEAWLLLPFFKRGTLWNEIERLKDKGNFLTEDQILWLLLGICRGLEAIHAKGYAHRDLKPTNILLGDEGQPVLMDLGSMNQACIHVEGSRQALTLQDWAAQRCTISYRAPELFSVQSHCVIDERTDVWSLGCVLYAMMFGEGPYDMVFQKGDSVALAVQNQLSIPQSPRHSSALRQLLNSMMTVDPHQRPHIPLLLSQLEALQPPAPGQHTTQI
Sequence of DNA topoisomerase 2-alpha (P11388 whole entry): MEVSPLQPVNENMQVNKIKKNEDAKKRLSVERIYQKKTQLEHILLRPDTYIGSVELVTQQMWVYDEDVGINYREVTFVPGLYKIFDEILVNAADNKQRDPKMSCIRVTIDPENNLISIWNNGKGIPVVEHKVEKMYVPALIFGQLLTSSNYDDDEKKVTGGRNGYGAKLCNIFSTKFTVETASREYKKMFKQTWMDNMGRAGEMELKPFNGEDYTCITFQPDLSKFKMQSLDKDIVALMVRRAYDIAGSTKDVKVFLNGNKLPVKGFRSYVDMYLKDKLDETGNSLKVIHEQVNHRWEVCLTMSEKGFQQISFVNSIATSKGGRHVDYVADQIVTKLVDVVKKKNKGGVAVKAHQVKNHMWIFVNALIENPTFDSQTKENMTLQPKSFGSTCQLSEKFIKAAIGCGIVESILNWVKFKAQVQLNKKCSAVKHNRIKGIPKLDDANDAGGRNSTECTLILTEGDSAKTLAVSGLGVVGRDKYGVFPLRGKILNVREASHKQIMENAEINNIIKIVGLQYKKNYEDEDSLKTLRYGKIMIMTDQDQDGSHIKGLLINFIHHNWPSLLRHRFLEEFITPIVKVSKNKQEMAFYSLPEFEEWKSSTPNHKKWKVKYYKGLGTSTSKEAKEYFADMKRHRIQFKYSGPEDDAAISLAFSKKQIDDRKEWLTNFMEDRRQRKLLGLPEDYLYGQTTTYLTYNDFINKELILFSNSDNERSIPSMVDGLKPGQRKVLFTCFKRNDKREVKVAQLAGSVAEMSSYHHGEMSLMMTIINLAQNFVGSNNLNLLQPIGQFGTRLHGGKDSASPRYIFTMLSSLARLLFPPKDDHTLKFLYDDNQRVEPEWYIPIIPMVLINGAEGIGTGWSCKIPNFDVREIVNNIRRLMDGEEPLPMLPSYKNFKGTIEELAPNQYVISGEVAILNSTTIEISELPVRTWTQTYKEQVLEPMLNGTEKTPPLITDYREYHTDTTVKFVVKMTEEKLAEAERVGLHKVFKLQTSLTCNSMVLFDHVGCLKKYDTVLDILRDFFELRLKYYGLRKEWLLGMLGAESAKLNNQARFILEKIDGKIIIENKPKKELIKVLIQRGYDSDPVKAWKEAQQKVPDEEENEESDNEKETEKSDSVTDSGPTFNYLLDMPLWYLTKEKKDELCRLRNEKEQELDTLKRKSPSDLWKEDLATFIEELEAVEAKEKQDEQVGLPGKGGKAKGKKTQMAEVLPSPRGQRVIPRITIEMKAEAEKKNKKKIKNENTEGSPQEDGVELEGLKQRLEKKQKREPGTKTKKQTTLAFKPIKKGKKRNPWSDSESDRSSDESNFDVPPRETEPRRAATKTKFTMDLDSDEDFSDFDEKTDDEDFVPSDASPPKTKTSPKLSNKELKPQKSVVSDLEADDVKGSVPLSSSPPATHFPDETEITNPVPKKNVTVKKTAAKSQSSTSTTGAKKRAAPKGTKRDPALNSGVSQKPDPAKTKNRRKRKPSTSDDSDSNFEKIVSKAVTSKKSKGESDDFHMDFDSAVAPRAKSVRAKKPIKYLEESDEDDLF
Sequence of Ephrin type-A receptor 2 (P29317 whole entry): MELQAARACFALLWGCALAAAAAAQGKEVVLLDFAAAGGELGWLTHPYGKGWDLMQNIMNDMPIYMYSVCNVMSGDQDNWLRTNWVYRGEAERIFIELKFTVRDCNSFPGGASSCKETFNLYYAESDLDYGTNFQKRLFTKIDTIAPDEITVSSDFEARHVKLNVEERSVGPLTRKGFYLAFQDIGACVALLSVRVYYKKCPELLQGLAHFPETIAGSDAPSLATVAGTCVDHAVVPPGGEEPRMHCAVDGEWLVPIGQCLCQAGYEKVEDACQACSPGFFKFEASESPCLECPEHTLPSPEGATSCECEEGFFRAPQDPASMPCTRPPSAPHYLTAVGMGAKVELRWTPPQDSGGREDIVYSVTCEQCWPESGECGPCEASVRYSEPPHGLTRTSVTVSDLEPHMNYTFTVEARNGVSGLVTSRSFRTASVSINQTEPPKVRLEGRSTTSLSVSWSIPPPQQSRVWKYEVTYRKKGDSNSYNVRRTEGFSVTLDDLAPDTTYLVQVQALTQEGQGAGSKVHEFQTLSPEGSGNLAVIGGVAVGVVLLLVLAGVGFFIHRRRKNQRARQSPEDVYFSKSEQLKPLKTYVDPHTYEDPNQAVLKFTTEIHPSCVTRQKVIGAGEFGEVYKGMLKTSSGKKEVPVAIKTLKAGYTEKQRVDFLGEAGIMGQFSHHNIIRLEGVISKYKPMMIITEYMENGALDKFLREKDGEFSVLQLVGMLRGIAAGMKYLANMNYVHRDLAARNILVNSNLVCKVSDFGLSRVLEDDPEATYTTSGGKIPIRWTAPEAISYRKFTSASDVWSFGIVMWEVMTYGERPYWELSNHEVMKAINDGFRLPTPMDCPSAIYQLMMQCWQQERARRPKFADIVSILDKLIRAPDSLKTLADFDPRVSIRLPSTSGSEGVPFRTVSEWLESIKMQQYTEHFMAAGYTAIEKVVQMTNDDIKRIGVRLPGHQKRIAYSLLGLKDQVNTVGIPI

In general, Kd refers to the concentration at which binding is half-saturated. For `CC(C)Nc1cc(-c2c[nH]c(C(=O)N[C@H](CO)c3cccc(Cl)c3)c2)c(Cl)cn1` [ULIXERTINIB], the Kd in [1], in assay [2], in assay [3], in assay [4], in [5] and in [6] was > 30 µM (inactive) in each case. Besides, the Kd in assay [7], in [8] and in assay [9] was > 30 µM (inactive) each time.

As for `COc1cc(CCc2cc(NC(=O)c3ccc(N4C[C@@H](C)N[C@@H](C)C4)cc3)n[nH]2)cc(OC)c1` [AZD-4547], the Kd in assay [1], in [2], in [3], in [4], in assay [5] and in assay [6] was > 30 µM (inactive) each time. Moreover, the Kd in [7], in assay [8] and in [9] was > 30 µM (inactive) throughout.

For `CCS(=O)(=O)N1CC(CC#N)(n2cc(-c3ncnc4[nH]ccc34)cn2)C1` [BARICITINIB], the Kd in [1], in assay [2], in [3], in assay [4], in [5] and in assay [6] was > 30 µM (inactive) each time. Moreover, the Kd in assay [7], in [8] and in [9] was > 30 µM (inactive) in each case.

Take `COc1ccc(-c2ccc3c(N4CCOC[C@@H]4C)nc(N4CCOC[C@@H]4C)nc3n2)cc1CO` [AZD-8055]: the Kd in [1], in assay [2], in assay [3], in [4], in [5] and in [6] was > 30 µM (inactive) each time. The Kd in assay [7], in assay [8] and in assay [9] was > 30 µM (inactive) in each case.

Broadly, the pKd is the negative decadic logarithm of the Kd, by convention in mol/L. Read a low pKd as a high Kd. As for `CN1CC[C@@H](c2c(O)cc(O)c3c(=O)cc(-c4ccccc4Cl)oc23)[C@@H]1CO`, the Kd was > 30 µM (inactive) in assay [1]; > 30 µM (inactive) in [2]; 2.72 µM (active) in assay [3]; > 30 µM (inactive) in assay [4]; > 30 µM (inactive) in assay [6]; > 30 µM (inactive) in [7]. For the same molecule, the Kd in assay [8] and in assay [9] was > 30 µM (inactive) each time. The same molecule had a pKd in assay [5] of 5.83.

Regarding `Cc1ccc(-n2nc(C(C)(C)C)cc2NC(=O)NCc2cc(F)ccc2Oc2ccc3c(cnn3CCO)c2)cc1` [PEXMETINIB], the dissociation constant Kd is 2.56 µM (active) in [1]; > 30 µM (inactive) in assay [2]; > 30 µM (inactive) in assay [3]; > 30 µM (inactive) in assay [4]; > 30 µM (inactive) in assay [5]; > 30 µM (inactive) in assay [6]. Also, the Kd in assay [7], in assay [8] and in [9] was > 30 µM (inactive) in each case.

Take `Cc1c(F)cc(C(=O)NC2CC2)cc1-c1ccc(C(=O)NCC(C)(C)C)cn1` [LOSMAPIMOD]: the Kd in assay [1], in assay [2], in assay [3], in assay [4], in assay [5] and in assay [6] was > 30 µM (inactive) each time. Further, the Kd in assay [7], in assay [8] and in assay [9] was > 30 µM (inactive) throughout.

Take `C[C@@H](c1ccc2nccn2c1)n1nnc2ncc(-c3cnn(C)c3)nc21` [SAVOLITINIB]: the Kd in [1], in assay [2], in assay [3], in [4], in [5] and in assay [6] was > 30 µM (inactive) throughout. In addition, the Kd in assay [7], in assay [8] and in assay [9] was > 30 µM (inactive) in each case.

In the case of `CCc1cnn2c(NCc3ccc[n+]([O-])c3)cc(N3CCCC[C@H]3CCO)nc12` [DINACICLIB], the Kd in assay [1] was > 30 µM (inactive); in assay [2], > 30 µM (inactive); in assay [3], 1.43 µM (active); in assay [4], > 30 µM (inactive); in assay [5], > 30 µM (inactive); in assay [6], > 30 µM (inactive). Further, the Kd in [7], in [8] and in assay [9] was > 30 µM (inactive) each time.

With `CNC(=O)c1cc(Oc2ccc(NC(=O)Nc3ccc(Cl)c(C(F)(F)F)c3)c(F)c2)ccn1` [REGORAFENIB], the Kd in [1] is 0.832 µM (active); in assay [2], > 30 µM (inactive); in [3] it was > 30 µM (inactive); in assay [4] it was > 30 µM (inactive); in assay [5], > 30 µM (inactive); in [6] it was > 30 µM (inactive). For the same molecule, the Kd in assay [7], in [8] and in assay [9] was > 30 µM (inactive) throughout.

With `COc1cc2nccc(Oc3ccc(NC(=O)Nc4cc(C)on4)c(Cl)c3)c2cc1OC` [TIVOZANIB], the Kd is 0.147 µM (active) in assay [1]; 0.448 µM (active) in assay [2]; > 30 µM (inactive) in assay [3]; > 30 µM (inactive) in assay [4]; > 30 µM (inactive) in assay [5]; > 30 µM (inactive) in assay [6]. Also, the results for the equilibrium dissociation constant (Kd) in assay [7], in assay [8] and in assay [9] were 0.787 µM (active), > 30 µM (inactive) and > 30 µM (inactive), respectively.

For the molecule `CCCS(=O)(=O)Nc1ccc(F)c(C(=O)c2c[nH]c3ncc(-c4ccc(Cl)cc4)cc23)c1F` [VEMURAFENIB], the Kd in assay [1], in [2], in assay [3], in [4], in [5] and in [6] was > 30 µM (inactive) throughout. Further, the Kd in assay [7] is 1.41 µM (active); in assay [8], > 30 µM (inactive); in assay [9], > 30 µM (inactive).

For the origin of these results see ChEMBL document CHEMBL3991601, “The target landscape of clinical kinase drugs” (Science, 2017).
